In patent US9469665B2, “Compound having lysophosphatidylserine receptor function modulation activity” (THE UNIVERSITY OF TOKYO, priority 2013, dated 2016):
Where a name gives a salt, the structure may show the parent alone.

melting point | SMILES
143.5 to 144.5 °C | C[C@H](COC(=O)CCc1ccccc1OCc1cccc(Oc2ccccc2)c1)OP(=O)(O)OC[C@H](N)C(=O)O (as salt: TFA) [Example 3, (2S)-2-amino-3-[hydroxyl-((1R)-1-methyl-2-{3-[2-(3-phenoxy-benzyloxy)-phenyl]-propionyloxy}-ethoxy)-phosphoryloxy]-propionic acid]
130.2 to 131 °C | CCCCCCCC/C=C\CCCCCCCC(=O)OC[C@@H](COCC)OP(=O)(O)OC[C@H](N)C(=O)O (as salt: TFA) [Example 6, (9Z)-Octadeca-9-enoic acid (2R)-2-[((2S)-2-amino-2-carboxy-ethoxy)-hydroxy-phosphoryloxy]-3-ethoxypropyl ester]
70 to 80 °C | CCCCCCCC/C=C\CCCCCCCC(=O)OC[C@H]1OCCC[C@H]1OP(=O)(O)OC[C@H](N)C(=O)O (as salt: TFA) [Example 15, (9Z)-Octadeca-9-enoic acid (2R,3R)-3-[((2S)-2-amino-2-carboxy-ethoxy)-hydroxy-phosphoryloxy]-tetrahydropyran-2-ylmethyl ester]
122 to 123 °C | CCCCCCCCCCCOc1ccccc1CCC(=O)O[C@@H]1COCC[C@H]1OP(=O)(O)OC[C@H](N)C(=O)O (as salt: TFA) [Example 9, (2S)-2-amino-3-(hydroxyl-{(3R,4R)-3-[3-(2-undecyloxy-phenyl)-propionyloxy]-tetrahydropyran-4-yloxy}-phosphoryloxy)-propionic acid]
